# According to US9890153B2, “Substituted 1H-pyrrolo [2, 3-b] pyridine and 1H-pyrazolo [3, 4-b] pyridine derivatives as salt inducible kinase 2 (SIK2) inhibitors” (Arrien Pharmaceuticals LLC, priority 2012, dated 2018):
# Entries after “also recorded” stand apart in the source; their conditions may differ. Where two headings read alike, the source gives them in different places.
# Columns and labels:
# SKOv3 cells = assay: SKOv3 i.p. xenograft in nu/nu mice; format: in vivo; settings: derivatives 30, 60 mg/kg, taxol 10 mg/kg, FIG. 5a-c
# Procedure: We examined the growth-inhibitory effect of 1H-Pyrrolo[2,3-b]pyridine derivatives in-vivo employing an i.p. xenograft model in which nu/nu mice were inoculated i.p. with sensitive cell line SKOv3 cells. One week after inoculation, mice were randomized into six treatment groups receiving vehicle, 1H-Pyrrolo[2,3-b]pyridine derivatives 30, 60 mg/kg, taxol 10 mg/kg and 1H-Pyrrolo[2,3-b]pyridine plus taxol. Drug treatment was well tolerated except i.p. treatment second group, with no apparent toxicity throughout the study. At the end of an experiment, all mice were sacrificed for tumor volume, weight and each mouse examined and recorded at autopsy.
# SKOV3ip1 tumor cells = assay: SKOv3 induced orthotopic murine model; format: in vivo, athymic female mice; settings: 20-100 mg/kg i.p. or p.o.
# Procedure: Dose-finding experiments initiated by injecting SKOV3ip1 (SKOV3ip1 cells were collected from cultures using either 0.25% trypsin-EDTA (Life Technologies) on the cell line) tumor cells i.p. (2.5×10^5) into athymic female mice. 19 days after tumor cell orthotopic inoculation and when i.p. tumors were palpable, then the mice randomized into 6 dosage groups: 0 mg (vehicle alone, group 1), 20 and 40 mg/kg (groups 2, 3) received 1H-Pyrrolo[2,3-b]pyridine compound i.p QD for 3 days (M/W/F), 60 and 80 mg/kg (groups 4, 5) received 1H-Pyrrolo[2,3-b]pyridine compound p.o BID for 3 days (M/W/F) and 100 mg/kg group received 1H-Pyrrolo[2,3-b]pyridine compound+Taxol p.o BID for 3 days (M/W/F). […] Additionally, we performed quantitative RT-PCR, Western blot, and immunocytology experiments to identify overexpression of SIK2 in control groups against treatment groups along with SIK2 inhibition of transcription factor CREB via phosphorylation of its cofactor TORC2/CRTC2 as a biological indicator of SIK2 kinase activity. Further characterized the effects of SIK2 kinase inhibition on tumor growth inhibition, examined the tumor nodule formation.
# [1] = biological target: SIK2 (QIK) (SEQ ID NO: 11) (Homo sapiens, UniProt Q9H0K1); assay: SIK2 kinase assay (radiometric, 10 μM ATP); format: biochemical; settings: read-out: SIK2 (QIK) (SEQ ID NO: 11) kinase inhibition result
# How it was run: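 Radiometric filter-binding format: enzyme and substrate peptide incubated with or without compound and ATP mix for 20 min at 30 °C. Reaction stopped with phosphoric acid, captured on filter mats and washed with 0.8% phosphoric acid before counting.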
# SIK1 (SEQ ID NO: 10) = biological target: T1, SIK1 (SEQ ID NO: 10) (Homo sapiens, UniProt P57059); assay: Protein kinase assay, SIK1; format: biochemical; settings: read-out: SIK1 (SEQ ID NO: 10) kinase inhibition result
# T1 construct: Reaction Biology Corporation (assay service, HotSpot panel)
# How it was run: (§1)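 Radiometric assay in HEPES pH 7.5 with MgCl2, EGTA, Brij35, BSA, Na3VO4, DTT and 1% DMSO; compound added ~20 min before ATP plus 33P-ATP (10 μM final). IC50 from curve fits.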
# [2] = biological target: T2, SIK3 (QSK) (SEQ ID NO: 24) (Homo sapiens, UniProt Q9Y2K2); assay: Protein kinase assay, SIK3; format: biochemical; settings: read-out: SIK3 (QSK) (SEQ ID NO: 24) kinase inhibition result
# T2 construct: Reaction Biology Corporation (assay service, HotSpot panel)
# How it was run: as §1
# [3] = Rat bioavailability and pharmacokinetics; format: in vivo, male Sprague Dawley rats
# Procedure: The objective of this study was to investigate the bio-availability and pharmacokinetics of a 1H-Pyrrolo[2,3-b]pyridine compound in male Sprague Dawley rats. A total of 6 male rats were used in the study.
# Dose formulations were prepared on the day of doing. Blood samples were collected at 0.083 (only IV), 0.25, 0.5, 1, 2, 4, 8 and 24 h post-dose. At each time point, approximately 0.2 mL of blood was withdrawn from each cannulated rat through jugular vein and transferred to a pre-labeled microfuge tube containing 20 μL of 200 mM K2EDTA permL of blood. Following collection of blood sample, equal volume of heparinized saline was flushed into jugular vein of rat. The blood samples were centrifuged at 5000 g for 5 minutes at 4±2° C. The plasma was separated within 30 min of scheduled time and stored below −60° C. until bio-analysis. The plasma samples were analyzed for 114 using a fit-for purpose liquid chromatographic tandem mass spectrometric detection (LC-MS/MS) method with a lower limit of quantification of 2.21 ng/mL. The pharmacokinetic parameters for compound 114 were calculated using the non-compartmental analysis tool of validated WinNonlin® software (Version 5.2).
# [4] = male, Sprague Dawley, plasma, IV 5 mg/kg, rat
# [5] = male, Sprague Dawley, plasma, PO 20 mg/kg, rat
# T1 sequence (P57059 whole entry): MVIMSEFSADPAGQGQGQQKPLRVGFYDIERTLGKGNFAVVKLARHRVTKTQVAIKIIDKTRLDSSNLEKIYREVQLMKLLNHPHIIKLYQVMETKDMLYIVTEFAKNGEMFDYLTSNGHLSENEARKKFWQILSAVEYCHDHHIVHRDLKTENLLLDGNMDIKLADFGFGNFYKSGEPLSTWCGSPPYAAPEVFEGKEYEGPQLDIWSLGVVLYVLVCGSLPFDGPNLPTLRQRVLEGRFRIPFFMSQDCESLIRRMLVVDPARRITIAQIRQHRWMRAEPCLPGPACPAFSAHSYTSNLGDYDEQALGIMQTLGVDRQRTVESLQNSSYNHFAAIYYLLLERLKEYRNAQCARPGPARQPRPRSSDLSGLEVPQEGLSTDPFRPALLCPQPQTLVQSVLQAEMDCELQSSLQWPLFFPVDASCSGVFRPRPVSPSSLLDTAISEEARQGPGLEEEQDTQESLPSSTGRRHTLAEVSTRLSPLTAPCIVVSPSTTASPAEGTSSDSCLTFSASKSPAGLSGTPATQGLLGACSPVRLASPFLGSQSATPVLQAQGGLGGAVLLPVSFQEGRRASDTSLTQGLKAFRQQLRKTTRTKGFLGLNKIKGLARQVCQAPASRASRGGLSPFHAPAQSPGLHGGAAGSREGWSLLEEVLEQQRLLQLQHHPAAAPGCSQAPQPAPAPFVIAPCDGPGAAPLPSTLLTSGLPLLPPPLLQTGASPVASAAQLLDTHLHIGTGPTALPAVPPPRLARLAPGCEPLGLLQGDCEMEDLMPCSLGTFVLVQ
# SIK2 (QIK) (SEQ ID NO: 11), sequence (Q9H0K1 whole entry): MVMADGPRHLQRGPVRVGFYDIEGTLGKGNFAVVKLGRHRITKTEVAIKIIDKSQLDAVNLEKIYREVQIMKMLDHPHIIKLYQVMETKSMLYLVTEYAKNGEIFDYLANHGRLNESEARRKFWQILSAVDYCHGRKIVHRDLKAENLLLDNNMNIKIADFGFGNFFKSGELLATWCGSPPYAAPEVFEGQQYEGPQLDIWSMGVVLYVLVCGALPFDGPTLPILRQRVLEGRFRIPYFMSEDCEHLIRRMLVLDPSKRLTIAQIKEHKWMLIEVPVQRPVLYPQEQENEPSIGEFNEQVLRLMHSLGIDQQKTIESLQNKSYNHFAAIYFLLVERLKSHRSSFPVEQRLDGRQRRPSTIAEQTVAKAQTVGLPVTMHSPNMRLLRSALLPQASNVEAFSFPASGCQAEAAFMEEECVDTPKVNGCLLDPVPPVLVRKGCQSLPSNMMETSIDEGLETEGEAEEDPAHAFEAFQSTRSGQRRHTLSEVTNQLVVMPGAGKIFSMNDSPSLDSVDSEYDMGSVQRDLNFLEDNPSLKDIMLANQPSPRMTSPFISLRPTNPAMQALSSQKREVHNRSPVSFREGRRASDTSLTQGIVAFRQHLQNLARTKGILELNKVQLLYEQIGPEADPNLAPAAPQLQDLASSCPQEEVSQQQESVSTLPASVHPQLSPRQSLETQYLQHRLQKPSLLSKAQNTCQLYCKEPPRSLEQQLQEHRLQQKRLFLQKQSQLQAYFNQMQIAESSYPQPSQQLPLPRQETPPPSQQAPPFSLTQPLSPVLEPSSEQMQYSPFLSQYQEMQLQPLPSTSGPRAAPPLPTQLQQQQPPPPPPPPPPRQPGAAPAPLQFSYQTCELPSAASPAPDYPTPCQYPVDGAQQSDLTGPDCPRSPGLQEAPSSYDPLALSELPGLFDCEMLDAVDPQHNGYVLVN
# T2 sequence (Q9Y2K2 whole entry): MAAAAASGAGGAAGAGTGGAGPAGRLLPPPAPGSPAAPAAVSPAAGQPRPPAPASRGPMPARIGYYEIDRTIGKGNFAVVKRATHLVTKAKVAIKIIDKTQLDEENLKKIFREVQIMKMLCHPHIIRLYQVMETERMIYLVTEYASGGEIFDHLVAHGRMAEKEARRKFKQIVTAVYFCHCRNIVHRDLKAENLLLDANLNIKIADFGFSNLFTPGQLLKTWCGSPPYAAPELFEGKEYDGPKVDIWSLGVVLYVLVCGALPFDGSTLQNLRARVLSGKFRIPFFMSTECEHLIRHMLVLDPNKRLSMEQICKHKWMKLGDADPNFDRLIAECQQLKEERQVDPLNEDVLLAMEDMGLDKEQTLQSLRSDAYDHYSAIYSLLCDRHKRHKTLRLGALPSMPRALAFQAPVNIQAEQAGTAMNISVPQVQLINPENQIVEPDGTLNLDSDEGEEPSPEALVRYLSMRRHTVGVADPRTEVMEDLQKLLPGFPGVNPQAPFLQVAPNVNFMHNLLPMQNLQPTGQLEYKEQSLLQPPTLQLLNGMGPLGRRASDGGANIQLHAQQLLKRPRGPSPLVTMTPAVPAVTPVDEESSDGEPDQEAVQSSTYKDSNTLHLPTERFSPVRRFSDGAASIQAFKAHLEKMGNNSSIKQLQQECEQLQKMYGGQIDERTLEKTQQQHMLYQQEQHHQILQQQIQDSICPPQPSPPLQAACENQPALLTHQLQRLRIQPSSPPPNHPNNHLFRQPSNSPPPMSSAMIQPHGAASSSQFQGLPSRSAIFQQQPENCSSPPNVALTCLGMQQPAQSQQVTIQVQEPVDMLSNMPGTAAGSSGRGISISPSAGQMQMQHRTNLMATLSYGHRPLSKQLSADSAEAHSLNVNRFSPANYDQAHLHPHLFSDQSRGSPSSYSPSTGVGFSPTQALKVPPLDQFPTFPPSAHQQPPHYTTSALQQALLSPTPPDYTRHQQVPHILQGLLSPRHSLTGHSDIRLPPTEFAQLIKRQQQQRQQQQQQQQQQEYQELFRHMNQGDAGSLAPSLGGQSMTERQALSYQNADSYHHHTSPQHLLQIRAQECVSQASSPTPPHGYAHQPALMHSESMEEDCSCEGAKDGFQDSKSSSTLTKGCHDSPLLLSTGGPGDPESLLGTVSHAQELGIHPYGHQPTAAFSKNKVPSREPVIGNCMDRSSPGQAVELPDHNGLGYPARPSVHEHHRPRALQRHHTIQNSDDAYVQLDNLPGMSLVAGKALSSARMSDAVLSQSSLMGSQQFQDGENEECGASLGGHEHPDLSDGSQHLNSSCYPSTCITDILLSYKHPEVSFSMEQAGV
SMILES,IC50 [1],IC50 (SIK1 (SEQ ID NO: 10)),IC50 [2],further results
CC(=O)O[C@H]1C(=O)[C@@]2(C)[C@H]([C@H](OC(=O)c3ccccc3)[C@]3(O)C[C@H](OC(=O)[C@H](O)[C@@H](NC(=O)c4ccccc4)c4ccccc4)C(C)=C1C3(C)C)[C@]1(OC(C)=O)CO[C@@H]1C[C@@H]2O [taxol],,,,"antitumor effect (tumor volume, weight, number) (SKOv3 cells): significant antitumor effects; also recorded: inhibited the abdominal tumor growth and tumor cell dissemination; antitumor effect (SKOV3ip1 tumor cells): significant antitumor effects"
"Oc1c(F)cc(F)cc1-c1c[nH]c2ncc(-c3ccsc3)cc12 [Example 124, 2,4-difluoro-6-(5-(thiophen-3-yl)-1H-pyrrolo[2,3-b]pyridin-3-yl)phenol]",> 100 nM,> 100 nM,> 100 nM,
"Oc1ccccc1-c1c[nH]c2ncc(-c3ccsc3)cc12 [Example 123, 2-(5-(thiophen-3-yl)-1H-pyrrolo[2,3-b]pyridin-3-yl)phenol]",> 100 nM,> 100 nM,> 100 nM,
"CCN(CC)S(=O)(=O)c1ccccc1-c1c[nH]c2nccc(-c3ccsc3)c12 [Example 95, N,N-diethyl-2-(4-(thiophen-3-yl)-1H-pyrrolo[2,3-b]pyridin-3-yl)benzenesulfonamide]",> 1000 nM,> 1000 nM,> 1000 nM,

# Further lines, with some results ahead:
IC50 [1],IC50 (SIK1 (SEQ ID NO: 10)),IC50 [2],SMILES,further results
< 100 nM,> 100 nM,> 1000 nM,"Fc1cccc(-c2c[nH]c3ncc(-c4ccsc4)cc23)c1Cl [Example 114, 3-(2-chloro-3-fluorophenyl)-5-(thiophen-3-yl)-1H-pyrrolo[2,3-b]pyridine]","F ([3]; PO 20 mg/kg vs IV 5 mg/kg, from AUCinf and nominal doses): 15%; AUC(0-inf) [3, 4]: 2620 ± 647 ng·h/mL; AUC(0-t) [3, 4]: 2600 ± 637 ng·h/mL; clearance [3, 4]: 33.4 ± 9.57 mL/min/kg; half-life [3, 4]: 32.4 ± 3 min; Cmax ([3]; male, Sprague Dawley, plasma, IV 5 mg/kg, rat, read-out: Cmax (concentration at time zero)): 3850 ng/mL; Vd ([3]; male, Sprague Dawley, plasma, IV 5 mg/kg, rat, read-out: Vss): 1.61 ± 0.28 L/kg; AUC(0-inf) [3, 5]: 1600 ± 183 ng·h/mL; AUC(0-t) [3, 5]: 1580 ± 179 ng·h/mL; Cmax ([3]; male, Sprague Dawley, plasma, PO 20 mg/kg, rat, read-out: Cmax): 853 ng/mL; Tmax ([3]; male, Sprague Dawley, plasma, PO 20 mg/kg, rat, read-out: Tmax (median)): 15 min"
< 100 nM,> 1000 nM,> 100 nM,"COc1c(F)cccc1-c1c[nH]c2ncc(-c3cccc(S(=O)(=O)N(C)C)c3)cc12 [Example 184, 3-(3-(3-fluoro-2-methoxyphenyl)-1H-pyrrolo[2,3-b]pyridin-5-yl)-N,N-dimethylbenzenesulfonamide]",
< 100 nM,> 100 nM,< 100 nM,"O=C(c1c(F)cccc1F)c1c[nH]c2ncc(-c3cnc(N4CCOCC4)s3)cc12 [Example 213, (2,6-difluorophenyl)(5-(2-morpholinothiazol-5-yl)-1H-pyrrolo[2,3-b]pyridin-3-yl)methanone]",
< 100 nM,> 100 nM,< 100 nM,"COc1c(F)cc(F)cc1-c1c[nH]c2ncc(-n3cc(N4CCN(S(C)(=O)=O)CC4)cn3)cc12 [Example 217, 3-(3,5-difluoro-2-methoxyphenyl)-5-(4-(4-(methylsulfonyl)piperazin-1-yl)-1H-pyrazol-1-yl)-1H-pyrrolo[2,3-b]pyridine]",
< 100 nM,> 100 nM,< 100 nM,"COc1c(F)cc(F)cc1-c1c[nH]c2ncc(-c3cnn(C4CCN(C)CC4)c3)cc12 [Example 212, 3-(3,5-difluoro-2-methoxyphenyl)-5-(1-(1-methylpiperidin-4-yl)-1H-pyrazol-4-yl)-1H-pyrrolo[2,3-b]pyridine]",
< 100 nM,> 100 nM,< 100 nM,"COc1c(F)cc(F)cc1-c1c[nH]c2ncc(-c3csc(N4CCOCC4)n3)cc12 [Example 208, 4-(4-(3-(3,5-difluoro-2-methoxyphenyl)-1H-pyrrolo[2,3-b]pyridin-5-yl)thiazol-2-yl)morpholine]",
< 100 nM,> 1000 nM,> 1000 nM,"COc1c(F)cccc1-c1c[nH]c2ncc(-c3ccc(C)o3)cc12 [Example 168, 3-(3-fluoro-2-methoxyphenyl)-5-(5-methylfuran-2-yl)-1H-pyrrolo[2,3-b]pyridine]",
